We go through 36 compounds from the Deep4Chem optical property database.

This series in a line: solvent given as SMILES.

As for `FC(F)(F)c1ccc(-n2c(-c3ccc(N(c4ccc(-c5ccc(N(c6ccc(-c7nc8c9ccccc9c9ccccc9c8n7-c7ccc(C(F)(F)F)cc7)cc6)c6ccc(-c7nc8c9ccccc9c9ccccc9c8n7-c7ccc(C(F)(F)F)cc7)cc6)cc5)cc4)c4ccc(-c5nc6c7ccccc7c7ccccc7c6n5-c5ccc(C(F)(F)F)cc5)cc4)cc3)nc3c4ccccc4c4ccccc4c32)cc1`, the emission maximum (in ClCCl) was 442 nm.
Take `COc1ccc(-c2nc(-c3ccccc3OC)[nH]c2-c2ccc(OC)cc2)cc1`: the emission maximum (in CO) is given as 392 nm.
Regarding `COc1ccc2cc(C3=[N+]4C(=Nc5c(-c6ccc7ccccc7c6)cc(-c6ccc7cc(OC)ccc7c6)n5[B-]4(F)F)C(c4ccc5ccccc5c4)=C3)ccc2c1`, the emission maximum (in ClCCl) is 754 nm.
The same measure, in the same setting: under `COC(=O)c1c(-c2cc3ccccc3oc2=O)nn(-c2cccc(Cl)c2)c1C(=O)OC` stands 418 nm.
`CCN(CC)c1ccc(/C=C2\CC/C(=C\c3ccc(N(c4ccccc4)c4ccccc4)cc3)C2=C(C#N)C#N)cc1`: for the setting “in CN(C)C=O”, the emission maximum amounted to 716 nm.
In turn, `N#Cc1cc2ccccc2oc1=N` came in with an emission maximum (in C1CCOC1) of 409 nm; an emission maximum (in CC#N) of 407 nm; an emission maximum (in CCOC(C)=O) of 410 nm; an emission maximum (in CS(C)=O) of 406 nm; an emission maximum (in ClC(Cl)Cl) of 411 nm.
Regarding `CN(C)c1ccc(/C=C2\CC/C(=C\c3ccc(C#N)cc3)C2=O)cc1`, the emission maximum is, setting by setting: (in C1CCOC1) 651 nm; (in CC#N) 721 nm; (in CC(C)=O) 718 nm; (in CC(C)O) 647 nm; (in CCCCO) 648 nm; (in CCCCOC(C)=O) 631 nm. In addition, the emission maximum is 644 nm (in CCCO); 659 nm (in CCO); 641 nm (in CCOC(=O)c1ccccc1); 643 nm (in CCOC(C)=O); 580 nm (in CCOCC); 740 nm (in CN(C)C=O). The emission maximum is, setting by setting: (in CO) 693 nm; (in CS(C)=O) 731 nm; (in Cc1ccccc1) 558 nm; (in ClC(Cl)(Cl)Cl) 513 nm; (in ClC(Cl)Cl) 603 nm; (in ClCCl) 643 nm. The compound also displayed an emission maximum (in Clc1ccccc1Cl) of 625 nm; an emission maximum (in O=C1CCCC1) of 678 nm; an emission maximum (in S=C=S) of 535 nm; an emission maximum (in c1ccccc1) of 569 nm; an emission maximum (in c1ccncc1) of 673 nm.
`Cc1ccc(C2=C3C=CC(Sc4ccccc4)=[N+]3[B-](F)(F)n3c(Sc4ccccc4)ccc32)cc1` showed an emission maximum (in C1CCOC1) of 599 nm.
Take `F[B-]1(F)OC(c2ccccc2)=Cc2ccc3ccccc3[n+]21`: the emission maximum stood at 438 nm (in ClC(Cl)Cl) and 441 nm (in ClCCl).
In the case of `CC(C)[Si](C#Cc1c2cc3ccccc3cc2c(C#C[Si](C(C)C)(C(C)C)C(C)C)c2nc3c(ccc4ccccc43)nc12)(C(C)C)C(C)C`, where the note is “in CCCCCC”, the emission maximum amounted to 661 nm.
The compound `Cc1ccc(-c2sc(/C(C#N)=C/c3ccc(C#N)cc3)nc2-c2ccc(Cl)cc2)cc1` returned an emission maximum (in CC#N) of 535 nm.
Where the note is “in Cc1ccccc1”, `CCCCCCCCCCCCn1cccc1/C=C/c1ccc(OCCCC)c2c(/C=C/c3cccn3CCCCCCCCCCCC)ccc(OCCCC)c12` came in with an emission maximum of 490 nm.
Consider `[NH3+]c1cc([NH3+])cc(-c2[nH+]c3ccccc3s2)c1`, for which the emission maximum (in O) amounted to 460 nm.
`CC1(C)c2ccccc2-c2cc3c(cc21)c1ccccc1n3-c1ccc2ncccc2c1` yielded an emission maximum (in ClCCl) of 446 nm.
With `CCCc1ccc(C#Cc2ccc3nc4ccc(C#Cc5ccc(CCC)cc5)cn4c(=O)c3c2)cc1`, the emission maximum (in ClCCl) came to 480 nm.
Where the note is “in CCO”, `C#Cc1ccc2ccc3oc(=O)cc(C)c3c2c1` registered an emission maximum of 403 nm.
`CCN(CC)c1ccc2cc(-c3cn4cc5ccccc5cc4n3)c(=O)oc2c1` yielded an emission maximum (in ClC(Cl)Cl) of 460 nm.
Where the note is “in Cc1ccccc1”, `N#Cc1c(C#N)c(-n2c3ccccc3c3ccccc32)c(-n2c3ccccc3c3ccccc32)c(-n2c3ccccc3c3ccccc32)c1-n1c2ccccc2c2ccccc21` displayed an emission maximum of 525 nm.
`CCCCCc1ccc(C#Cc2cc(C#Cc3ccc(CCCCC)cc3)c3ccc4c(C(=O)c5ccccc5)cc(C#Cc5ccc(CCCCC)cc5)c5ccc2c3c54)cc1`: where the note is “in ClCCl”, the emission maximum stood at 511 nm.
As for `COc1ccc2c3ccc(OC)cc3c3cc4c(C)cc(=O)oc4cc3c2c1`, under “in ClC(Cl)Cl”, the emission maximum was determined as 475 nm.
As to `COc1ccc(C2=C(c3ccc(OC)cc3)C(c3ccc(OC)cc3)=[N+]3C2=C(c2ccc(OC)cc2)c2c(-c4ccc(OC)cc4)c(-c4ccc(OC)cc4)c(-c4ccc(OC)cc4)n2[B-]3(F)F)cc1`, where the note is “in C1CCOC1”, the emission maximum is on record as 640 nm.
The compound `O=c1c2cc(F)c(O)cc2n(-c2ccccc2)c2cc(O)c(F)cc12` returned an emission maximum (in CCO) of 454 nm.
On to `COc1ccc(/C=C/C2=CC(/C=C/c3ccc(OC)cc3)=[O+][B-](F)(F)O2)cc1`, for which the emission maximum is, setting by setting: (in CC#N) 549 nm; (in CC(C)=O) 534 nm; (in CCOC(C)=O) 515 nm; (in CCOCC) 497 nm; (in ClC(Cl)(Cl)Cl) 492 nm; (in ClCCl) 538 nm.
The compound `CCOC(=O)c1cc(C(=O)OCC)c2cccc(OC)c2n1` had an emission maximum (in CCO) of 526 nm.
Regarding `COc1cc(OC)cc(C2=[O+][B-](F)(F)OC(c3cccs3)=C2)c1`, the emission maximum by setting is: (in CCCCCC) 434.88 nm; (in Cc1ccccc1) 502.25 nm; (in ClCCl) 567 nm.
On to `CN(C)c1cc2oc3cc(N(C)C)c(F)cc3c(=O)c2cc1F`, for which the emission maximum (in CCO) was 446 nm.
For `CC1(C)CC(=O)c2cc(F)cc(F)c2N1`, the emission maximum is, setting by setting: (in CC#N) 455 nm; (in CCO) 492 nm.
The compound `CCCCN1/C(=C/C=C/C2=[N+](C)c3ccccc3C2(C)C)C(C)(C)c2c1ccc1ccccc21` registered an emission maximum (in CS(C)=O) of 586 nm.
`CCOC(=O)CCCCCn1c2ccccc2c(=O)c2cc3c(cc21)c(=O)c1cc(I)ccc1n3CCCCCC(=O)OCC`: the emission maximum (in CO) is 558 nm.
Regarding `CCC(C)(C)c1ccc(-c2ccc(-c3ccc(C(C)(C)CC)cc3)cc2)cc1`, the emission maximum (in C1COCCO1) amounted to 354 nm.
For the compound `CC(C)(C)c1ccc(-c2cc(-c3ccc(-c4cc(-c5ccc(C(C)(C)C)cc5)c(C(=O)N5CCCCC5)s4)s3)sc2C(=O)N2CCCCC2)cc1`, where the note is “in ClCCl”, the emission maximum is recorded as 461 nm.
Compound `CC1(C)c2ccccc2N(c2ccc(-c3ncccn3)cc2)c2ccccc21` returned an emission maximum (in Cc1ccccc1) of 448 nm and an emission maximum (in O=P(c1ccccc1)(c1ccccc1)c1ccc2oc3ccc(P(=O)(c4ccccc4)c4ccccc4)cc3c2c1) of 457 nm.
In the case of `O=C1C2=C3c4sccc4C=CN3C(=O)C2=C2c3sccc3C=CN12`, the emission maximum runs as follows: (in CN(C)C=O) 618 nm; (in ClC(Cl)Cl) 609 nm.
As for `CCCCCCN1C(=O)c2cc(-c3ccc(-n4c5ccccc5c5ccccc54)cc3)c(-c3ccc(-n4c5ccccc5c5ccccc54)cc3)cc2C1=O`, the emission maximum was found to be 548 nm (in ClC(Cl)Cl) and 481 nm (in c1ccc2c(c1)c1ccccc1n2-c1ccc(-c2ccc(-n3c4ccccc4c4ccccc43)cc2)cc1).
As to `N#Cc1c[nH]c2ccccc12`, the emission maximum was 314 nm (in C1CCOC1); 305 nm (in C1COCCO1); 313 nm (in CC#N); 315 nm (in CC(C)O); 314 nm (in CCO); 314 nm (in CO). In addition, the emission maximum stood at 316 nm (in CS(C)=O), 320 nm (in O) and 314 nm (in OCC(F)(F)F).
For the compound `COc1ccc(-c2ncc3ccccn23)cc1`, where the note is “in ClC(Cl)Cl”, the emission maximum amounted to 469 nm.
